Consider 37 compounds from PubChem BioAssay (NCI).

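Each compound was tested at five concentrations against cells in 96-well plates for 48 hours. Abbreviation: GI50, concentration required for 50% inhibition of growth. TGI is the concentration that stops growth completely.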

The subject of one assay is M19-MEL melanoma. The assay can be described thus: NCI tumour cell line growth inhibition, 48 h.
For the compound `COc1ccc(/C(=N\NC(=O)C(N)=O)C(c2ccc(OC)cc2)C2(O)C(=O)Nc3c(Cl)cccc32)cc1` (configuration not stated), the TGI is above 100 µM.

With `Cc1ccc(S(=O)(=O)N/N=C/c2oc(-c3ccncc3)c(-c3ccncc3)c2[N+](=O)[O-])cc1`, the TGI is above 100 µM.

Compound `CCc1cccc(C)c1NC(=O)C(=O)Cc1nc2ccccc2o1` had a TGI above 100 µM.

Compound `O=C(O)[C@H](NS(=O)(=O)c1ccc2ccccc2c1)c1ccccc1` came in with a TGI above 100 µM.

`CCOc1ccc2c(c1)[n+]([O-])c(-c1ccccc1Cl)c(N)[n+]2[O-]`: the TGI was above 100 µM.

Turning to `O=C1c2ccccc2C2(O)c3cc4ccccc4cc3OC12O` (configuration not stated), the TGI was above 100 µM.

The test system of the next assay is RXF-631 renal. In words: NCI tumour cell line growth inhibition, 48 h.
In turn, `COC(=O)[C@]1(C)CCCC2(C)C1CC[C@H]1C=C(C)[C@H]3CCC12C3` (some centres not stated) came in with a TGI above 100 µM.

`O=c1n(-c2ccccc2)c(=O)n2n1C1C=CC2C2C(C1)C2(Cl)Cl` (configuration not stated) came in with a TGI above 100 µM.

In turn, `CCOC(=O)C(C)(C)Oc1ccc2c(C)c(-c3ccc(Cl)cc3)c(=O)oc2c1` registered a TGI above 100 µM.

`CCC1C2C=CC(CC2)N1S(=O)(=O)c1ccc(C)cc1` (configuration not stated) had a TGI above 100 µM.

On to `CCOc1ccc(N2C(=O)/C(=C/c3ccc(N(CCC#N)CCC#N)cc3)N=C2c2cc([N+](=O)[O-])ccc2Cl)cc1`, for which the TGI was above 100 µM.

Compound `COc1ccc(-c2cc(-c3ccccc3)c(C#N)c(=O)n2C2OC(CO)C(O)C(O)C2O)cc1` (configuration not stated) displayed a TGI above 100 µM.

`CCOC(=O)C1(c2ccccc2)CCC(=O)CC1` registered a TGI above 100 µM.

On to `CCCCCCC[CH2][Sn]1([CH2]CCCCCCC)[O]C(=O)c2cccnc2[S]1`, for which the GI50 was above 100 µM and the TGI is above 100 µM.

Compound `O=C1[C@@H]2C3c4ccccc4C([C@@H]2C(=O)N1c1ccccc1)S3(=O)=O` yielded a TGI above 100 µM.

In turn, `Cc1ccc(S(=O)(=O)N/N=C/c2oc(-c3ccncc3)c(-c3ccncc3)c2[N+](=O)[O-])cc1` displayed a TGI above 100 µM.

`O=C(O)[C@H](NS(=O)(=O)c1ccc2ccccc2c1)c1ccccc1`: the TGI was above 100 µM.

`CCOc1ccc2c(c1)[n+]([O-])c(-c1ccccc1Cl)c(N)[n+]2[O-]` showed a TGI above 100 µM.

For a further assay, the system named is HOP-18 NSCLC. The assay can be described thus: NCI tumour cell line growth inhibition, 48 h.
`O=C(Nc1cc(Cl)ccc1Cl)c1cc2cccc(Cl)c2oc1=O`: the TGI was above 100 µM.

Compound `Cc1c(Cl)cccc1N1C(=O)C(Cl)=C(Cl)C1=O` gave a TGI above 100 µM.

`COc1ccc(NC(=O)/C(N=O)=C(/C)O)cc1` returned a TGI above 100 µM.

With `COc1cccc(/C=N/[N-]C(=O)c2ccncc2)c1[O-].[Cu+2].[OH3+]`, the GI50 was above 100 µM and the TGI is above 100 µM.

`CCc1c(OC(C)=O)c2c(NC3OC(COC(C)=O)C(OC(C)=O)C(OC(C)=O)C3OC(C)=O)nc(OC)nc2oc1=O` (configuration not stated) gave a TGI above 100 µM.

For the compound `O=[N+]([O-])c1ccc(-n2nnc(C3=NCCN3)c2-c2ccc(Cl)cc2)cc1`, the TGI is above 100 µM.

The compound `CCOc1ccc(N2C(=O)/C(=C/c3ccc(N(CCC#N)CCC#N)cc3)N=C2c2cc([N+](=O)[O-])ccc2Cl)cc1` returned a TGI above 100 µM.

`COc1ccc(-c2cc(-c3ccccc3)c(C#N)c(=O)n2C2OC(CO)C(O)C(O)C2O)cc1` (configuration not stated) yielded a TGI above 100 µM.

In the case of `CCOC(=O)C1(c2ccccc2)CCC(=O)CC1`, the TGI was above 100 µM.

`CC(=O)O[C@H]1CCC2[C@@H]3CCC4=C(O)c5nocc5C[C@]4(C)C3CC[C@@]21C` (some centres not stated) showed a TGI above 100 µM.

`O=C(O)CSc1n[nH]c(-c2ccccc2)n1` registered a TGI above 100 µM.

`O=C1[C@@H]2C3c4ccccc4C([C@@H]2C(=O)N1c1ccccc1)S3(=O)=O` registered a TGI above 100 µM.

Consider `COc1ccc(/C(=N\NC(=O)C(N)=O)C(c2ccc(OC)cc2)C2(O)C(=O)Nc3c(Cl)cccc32)cc1` (configuration not stated), for which the TGI was above 100 µM.

Compound `Cc1ccc(S(=O)(=O)N/N=C/c2oc(-c3ccncc3)c(-c3ccncc3)c2[N+](=O)[O-])cc1` showed a TGI above 100 µM.

The compound `CCc1cccc(C)c1NC(=O)C(=O)Cc1nc2ccccc2o1` yielded a TGI above 100 µM.

For `O=C(O)[C@H](NS(=O)(=O)c1ccc2ccccc2c1)c1ccccc1`, the TGI is above 100 µM.

For `CCOc1ccc2c(c1)[n+]([O-])c(-c1ccccc1Cl)c(N)[n+]2[O-]`, the TGI was above 100 µM.

Compound `O=C1c2ccccc2C2(O)c3cc4ccccc4cc3OC12O` (configuration not stated) came in with a TGI above 100 µM.

In a further assay the test system is MDA-N. In words: NCI tumour cell line growth inhibition, 48 h.
`Cc1[nH]c2ccccc2c1-c1cc(-c2cc(-c3c(C)[nH]c4ccccc34)on2)no1` showed a TGI of 48.3 µM.

In turn, `CCCNC(=S)/N=C/c1c(O)c2ccccc2[nH]c1=O` showed a TGI above 100 µM.

`COC1C(O)=C2C(=O)O/C(C)=C/C=C/C=C/C=C\CC(c3ccccc3)NC(=O)\C=C/C=C\C=C\C=C\[C@@]2(C)[C@@H]1O` (some centres not stated) came in with a TGI of 0.265 µM.

`Oc1cc(O)c2c(c1)OC(c1ccc(O)c(O)c1)C(OC1(c3cc(O)c(O)c(O)c3)Oc3cc(O)cc(O)c3C(O)C1O)C2` (configuration not stated) had a TGI of 49.5 µM.

For the compound `O=C1NC(=S)NNC12c1ccccc1-c1ccccc12`, the TGI was above 10 µM.

`CC(=O)OC12c3ccccc3-c3ccccc3C1C1C(=O)N(C)C(=O)C12Cl` (configuration not stated) returned a TGI above 10 µM.

`COc1c(OC)c(OC)c(C(=O)/C=C/c2ccccc2)c(OC)c1OC` displayed a TGI of 70.2 µM.

Turning to `COc1ccc(C(O)c2nccn2C)c(OC)c1` (configuration not stated), the TGI was above 100 µM.

The compound `C1CSCCSCCS1` showed a TGI above 100 µM.

The compound `O=C(CC(O)(C(F)(F)F)C(F)(F)F)c1cc(CC(=O)C(O)(C(F)(F)F)C(F)(F)F)cc(CC(=O)C(O)(C(F)(F)F)C(F)(F)F)c1` yielded a TGI above 9.13 µM.

Regarding `O=c1c2ccccc2sc2cccc(NCCCN3CCN(CCCNc4cccc5sc6ccccc6c(=O)c45)CC3)c12`, the TGI is above 100 µM.

As for `CC1=CC(=O)[C@@H](O)[C@]2(C)[C@H]3[C@@]4(O)OC[C@]35[C@H]([C@@H](C)[C@H]4O)[C@@H](O)C(=O)O[C@@H]5C[C@@H]12`, the TGI was determined as 0.869 µM.

For the compound `CCSc1[nH]c(Nc2nc(-c3ccccc3)n(-c3ccccc3)n2)c(C(N)=O)c1C(N)=O`, the TGI is above 10 µM.

Take `O=C(c1ccc(Cl)cc1)c1cnc(Nc2ccccc2Cl)s1`: the TGI stood at 50.1 µM.
